Data set [1] deals with T1, Aβ40 aggregates (Homo sapiens, UniProt P05067).
T1 construct: agglomerated Aβ40 peptide (10 μM, 35° C., agglomerated in PBS buffer for 3 days.)
The data set is described as follows: In vitro fluorescence measurement before and after mixing with agglomerated Aβ40 peptide. In kind it is binding. The note with it: for λem: emission wavelength; for λem / λex: 10 μM in PBS; for λex: excitation wavelength; for Fold Increase (FAβ/F0): fluorescence emission intensity at λem, 10 μM compound and 10 μM Aβ40 aggregates.

Data set [2] addresses T1, Aβ40 aggregates. The data set is described as follows: Apparent binding constant (Kd) by fluorescence titration with aggregated Aβ40 peptide. The note with it: 10 μM aggregated Aβ40 peptide, PBS, N = 3; read-out: Kd (mean ± SD). The procedure:
Apparent binding constants (Kd) of the nine compounds were measured by using 10 μM aggregated Aβ40 peptide. Fluorescence intensity of respective probes of […], 0.5, 1, […], 5, and 10 μM dissolved in PBS and fluorescence intensity of a mixture with aggregates Aβ peptide were measured. […] Theoretically, a preferable fluorescence probe for Aβ aggregates should have high fluorescence reactivity and binding affinity.

T1 sequence (P05067 672-711 limits assumed): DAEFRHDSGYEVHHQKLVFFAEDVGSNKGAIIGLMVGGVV

For the compound `O=c1c(Cl)c(Cl)cnn1/C=C/c1ccccc1` [Compound 1, trans-4,5-dichloro-2-styrylpyridazine-3(2H)-one], at Aβ40 aggregates [1], the λem turned out to be 496 nm, the λex worked out at 350 nm and the “Fold Increase (FAβ/F0)” value turned out to be 4.72.
Taken in the same sequence, the figures for `O=c1c(Cl)c(Cl)cnn1/C=C/c1ccc(F)cc1` [Compound 2, (E)-4,5-dichloro-2-(4-fluorostyryl)pyridazine-3(2H)-one] were 492 nm, 350 nm and 5.93.
`O=c1c(Cl)c(Cl)cnn1/C=C/c1ccc(Cl)cc1` [Compound 3, (E)-4,5-dichloro-2-(4-chlorostyryl)pyridazine-3(2H)-one]: at Aβ40 aggregates [1], the λem stood at 495 nm, the λex amounted to 380 nm and the “Fold Increase (FAβ/F0)” value amounted to 3.03.
Taken in the same sequence, the figures for `O=c1c(Cl)c(Cl)cnn1/C=C/c1ccc(Br)cc1` [Compound 4, (E)-2-(4-bromostyryl)-4,5-dichloropyridazine-3(2H)-one] were 495 nm, 370 nm and 2.12.
For `O=c1c(Cl)c(Cl)cnn1/C=C/c1ccc(I)cc1` [Compound 5, (E)-4,5-dichloro-2-(4-Iodostyryl)pyridazine-3(2H)-one], in that order: 498 nm, 380 nm and 5.26.
For `N#Cc1ccc(/C=C/n2ncc(Cl)c(Cl)c2=O)cc1` [Compound 6, (E)-2-(4-cyanostyryl)-4,5-dichloropyridazine-3(2H)-one], in that order: 486 nm, 380 nm and 2.94.
With `COC(=O)c1ccc(/C=C/n2ncc(Cl)c(Cl)c2=O)cc1` [Compound 7, (E)-4,5-dichloro-2-(4-methoxycarbonylstyryl)pyridazine-3(2H)-one], on Aβ40 aggregates [1], the λem is 488 nm, the λex is reported as 370 nm and the “Fold Increase (FAβ/F0)” value was determined as 2.07.
`O=c1c(Cl)c(Cl)cnn1/C=C/c1ccccc1[N+](=O)[O-]` [Compound 8, (E)-4,5-dichloro-2-(2-nitrostyryl)pyridazine-3(2H)-one]: at Aβ40 aggregates [1], the λem is recorded as 500 nm, the λex worked out at 370 nm and the “Fold Increase (FAβ/F0)” value worked out at 4.12.
Taken in the same sequence, the figures for `O=c1c(Cl)c(Cl)cnn1/C=C/c1cccc([N+](=O)[O-])c1` [Compound 9, (E)-4,5-dichloro-2-(3-nitrostyryl)pyridazine-3(2H)-one] were 485 nm, 390 nm and 2.12.
On to `O=c1c(Cl)c(Cl)cnn1/C=C/c1ccc([N+](=O)[O-])cc1` [Compound 10, (E)-4,5-dichloro-2-(4-nitrostyryl)pyridazine-3(2H)-one], for which, at Aβ40 aggregates [1], the λem turned out to be 515 nm, the λex stood at 390 nm and the “Fold Increase (FAβ/F0)” value amounted to 2.24.
Taken in the same sequence, the figures for `Cc1ccc(/C=C/n2ncc(Cl)c(Cl)c2=O)cc1` [Compound 11, (E)-4,5-dichloro-2-(4-methylstyryl)pyridazine-3(2H)-one] were 516 nm, 350 nm and 2.81.
In the case of `O=c1c(Cl)c(Cl)cnn1/C=C/c1ccc(-c2ccccc2)cc1` [Compound 12, (E)-2-(2-(biphenyl-4-yl)vinyl)-4,5-dichloropyridazine-3(2H)-one], at Aβ40 aggregates [1], the λem turned out to be 514 nm, the λex stood at 380 nm and the “Fold Increase (FAβ/F0)” value worked out at 1.92.
As to `O=c1c(Cl)c(Cl)cnn1/C=C/c1ccc(/C=C/c2ccccc2)cc1` [Compound 13, 4,5-dichloro-2-((E)-4-(E)-styrylstyryl)pyridazine-3(2H)-one], at Aβ40 aggregates [1], the λem is on record as 510 nm, the λex is given as 380 nm and the “Fold Increase (FAβ/F0)” value is on record as 2.04.
Take `Nc1ccc(/C=C/n2ncc(Cl)c(Cl)c2=O)cc1` [Compound 15, (E)-4,5-dichloro-2-(4-aminostyryl)pyridazine-3(2H)-one]: at Aβ40 aggregates [1], the λem was determined as 598 nm, the λex came out at 400 nm and the “Fold Increase (FAβ/F0)” value came out at 12.15. The Kd on Aβ40 aggregates [2] turned out to be 2.95 ± 1.15 µM.
On to `COc1ccccc1/C=C/n1ncc(Cl)c(Cl)c1=O` [Compound 16, (E)-4,5-dichloro-2-(2-methoxystyryl)pyridazine-3(2H)-one], for which, on Aβ40 aggregates [1], the λem turned out to be 492 nm, the λex was determined as 380 nm and the “Fold Increase (FAβ/F0)” value is listed as 8.24.
Take `COc1cccc(/C=C/n2ncc(Cl)c(Cl)c2=O)c1` [Compound 17, (E)-4,5-dichloro-2-(3-methoxystyryl)pyridazine-3(2H)-one]: at Aβ40 aggregates [1], the λem is given as 492 nm, the λex is 350 nm and the “Fold Increase (FAβ/F0)” value came out at 11.13. Besides, the Kd at Aβ40 aggregates [2] was 3.48 ± 1.14 µM.
As to `COc1ccc(/C=C/n2ncc(Cl)c(Cl)c2=O)cc1` [Compound 18, (E)-4,5-dichloro-2-(4-methoxystyryl)pyridazine-3(2H)-one], on Aβ40 aggregates [1], the λem came to 532 nm, the λex is given as 400 nm and the “Fold Increase (FAβ/F0)” value was 19.81. Also, at Aβ40 aggregates [2], the Kd is 2.57 ± 0.54 µM.
With `COc1cccc(/C=C/n2ncc(Cl)c(Cl)c2=O)c1OC` [Compound 19, (E)-4,5-dichloro-2-(2,3-dimethoxystyryl)pyridazine-3(2H)-one], at Aβ40 aggregates [1], the λem amounted to 504 nm, the λex is 350 nm and the “Fold Increase (FAβ/F0)” value amounted to 15.35. Besides, at Aβ40 aggregates [2], the Kd stood at 8.52 ± 2.48 µM.
For `COc1ccc(/C=C/n2ncc(Cl)c(Cl)c2=O)c(OC)c1` [Compound 20, (E)-4,5-dichloro-2-(2,4-dimethoxystyryl)pyridazine-3(2H)-one], in that order: 554 nm, 400 nm, 11.52 and 5.03 ± 3.48 µM.
Consider `COc1ccc(OC)c(/C=C/n2ncc(Cl)c(Cl)c2=O)c1` [Compound 21, (E)-4,5-dichloro-2-(2,5-dimethoxystyryl)pyridazine-3(2H)-one], for which, on Aβ40 aggregates [1], the λem was found to be 512 nm, the λex worked out at 370 nm and the “Fold Increase (FAβ/F0)” value came to 3.42.
As for `COc1cccc(OC)c1/C=C/n1ncc(Cl)c(Cl)c1=O` [Compound 22, (E)-4,5-dichloro-2-(2,6-dimethoxystyryl)pyridazine-3(2H)-one], at Aβ40 aggregates [1], the λem is reported as 545 nm, the λex amounted to 350 nm and the “Fold Increase (FAβ/F0)” value is listed as 4.53.
As for `COc1ccc(/C=C/n2ncc(Cl)c(Cl)c2=O)cc1OC` [Compound 23, (E)-4,5-dichloro-2-(3,4-dimethoxystyryl)pyridazine-3(2H)-one], on Aβ40 aggregates [1], the λem is listed as 552 nm, the λex is recorded as 350 nm and the “Fold Increase (FAβ/F0)” value amounted to 3.52.
For `COc1cc(/C=C/n2ncc(Cl)c(Cl)c2=O)cc(OC)c1` [Compound 24, (E)-4,5-dichloro-2-(3,5-dimethoxystyryl)pyridazine-3(2H)-one], in that order: 492 nm, 350 nm and 5.37.
For `COc1cc(OC)c(OC)cc1/C=C/n1ncc(Cl)c(Cl)c1=O` [Compound 26, (E)-4,5-dichloro-2-(2,4,5-trimethoxystyryl)pyridazine-3(2H)-one], in that order: 542 nm, 350 nm and 3.95.
